What was measured:
[1] = system: motor neurons in the spinal cord; conditions: previously reported; cited from earlier work
[2] = system: dopaminergic neurons within the substantia nigra; conditions: previously reported; cited from earlier work
[3] = system: newborn hippocampal neurons; assay: In vivo neuroprotection assay: BrdU+ newborn hippocampal neurons; design: species or system mice; conditions: for # cell (E6)/mm^3 (number of BrdU+ cells): in vivo neuroprotection assay, Table 2
Method: Results. Our most robust assay involves monitoring neuroprotection of newborn hippocampal neurons in mice because this assay gives a simultaneous readout of efficacy, acute toxicity and cell permeability. For this reason, all analogs of P7C3 were evaluated initially by infusing them directly into the left lateral ventricle of environmentally-deprived^ix live mice using a subcutaneously implanted osmotic minipump. Compounds were delivered intracerebroventricularly (ICV) over a 7 day period at a concentration of 10 μM (12 μL/d).^x Coincident with ICV administration of drug, mice were dosed daily with the thymidine analog bromodeoxyuridine (BrdU, IP, 50 mg/kg) to mark newly born hippocampal neural precursor cells. At the end of the 1 week dosing, animals were sacrificed and transcardially perfused. Brain slices were stained with antibodies to BrdU, and the number of surviving neural precursor cells was quantified by counting the number of BrdU+ cells in the hippocampal dentate gyrus. To avoid complications arising from the surgical implantation of the pump, we quantified neurogenesis in the hemisphere opposite to compound infusion. Finally, to obtain consistent data across many animals, the number of BrdU+ cells was normalized to the volume of the dentate gyrus.
In Vivo Neuroprotection Assay. Test compounds were evaluated as described previously.^2 Compounds were infused intracerebroventricularly (i.c.v.) into the left lateral ventricle of four adult (12 week old) wild-type C57BL/J6 mice by means of surgically implanted Alzet osmotic minipumps that delivered solution into animals at a constant rate of 0.5 μl/hour for 7 days. Alternatively, compounds were administered intraperitoneally twice daily. Bromodeoxyuridine (BrdU) was injected intraperitoneally at 50 mg/kg/day for six days during pump infusion. Twenty-four hours after the final BrdU administration, mice were sacrificed by transcardial perfusion with 4% paraformaldehyde at pH 7.4, and their brains were processed for immunohistochemical detection of incorporated BrdU in the SGZ. Dissected brains were immersed in 4% paraformaldehyde overnight at 4° C., then cryoprotected in sucrose before being sectioned into 40 μm thick free-floating sections. Unmasking of BrdU antigen was achieved through incubating tissue sections for two hours in 50% formamide/2×SSC at 65° C., followed by a five minute wash in 2×SSC and subsequent incubation for thirty minutes in 2M HCl at 37° C. Sections were processed for immunohistochemical staining with mouse monoclonal anti-BrdU (1:100). The number of BrdU+ cells in the entire dentate gyrus SGZ in the contralateral hemisphere (opposite side of surgically implanted pump) was quantified by counting BrdU+ cells within the SGZ and dentate gyrus in every fifth section throughout the entire hippocampus and then normalizing for dentate gyrus volume.

[4] = system: newborn hippocampal neurons; conditions: previously reported; cited from earlier work
[5] = system: 70 kD polypeptide; assay: Photo-crosslinking of 70 kD polypeptide and competition; type: binding; conditions: FIG. 13
Text: Note that non-specific, crosslinked bands are not competed by the “A20” variant, but that crosslinking of the 70 kD band was competed.

In the case of `OC(CNc1ccccc1)Cn1c2ccc(Br)cc2c2cc(Br)ccc21` (stereo not shown) [P7C3, 1-(3,6-dibromo-9H-carbazol-9-yl)-3-(phenylamino)propan-2-ol], the “motor neuron cell death in the spinal cord” value [1] is listed as “minimize motor neuron cell death”, the “protection of substantia nigra neurons from MPTP (earlier report)” value [2] is listed as “protect neurons in the substantia nigra” and the “# cell (E6)/mm^3 (number of BrdU+ cells)” value [3] is listed as 30 (E6)/mm^3. For the same compound, the “activity in the in vivo hippocampal neuroprotection assay (previous studies)” value [4] was “approximately doubled”.

In the case of `O=C(CCCC[C@@H]1SC[C@@H]2NC(=O)N[C@@H]21)NCCOCCOCCOCCn1cc(COc2ccc(OCC(O)Cn3c4ccc(Br)cc4c4cc(Br)ccc43)cc2)nn1` (stereo partly shown) [P7C3-S318], the “# cell (E6)/mm^3 (number of BrdU+ cells)” value [3] is reported as 20.8 (E6)/mm^3.

With `C#CCOc1ccc(C(=O)c2ccc(NCC(O)Cn3c4ccc(Br)cc4c4cc(Br)ccc43)cc2)cc1` (stereo not shown) [P7C3-S325] the “# cell (E6)/mm^3 (number of BrdU+ cells)” value [3] was 30.6 (E6)/mm^3.

With `C#CCOc1ccc(C(=O)c2cccc(NCC(F)Cn3c4ccc(Br)cc4c4cc(Br)ccc43)c2)cc1` (stereo not shown) [P7C3-S326] the photo-crosslinking products [5] was “photo-crosslinking of 70 kD polypeptide” and the “# cell (E6)/mm^3 (number of BrdU+ cells)” value [3] was 25 (E6)/mm^3.

For `OC(CNc1ccccn1)Cn1c2ccc(Br)cc2c2cc(Br)ccc21` (stereo not shown) [compound 1, 1-(3,6-dibromo-9H-carbazol-9-yl)-3-(pyridin-2-ylamino)propan-2-ol], the “activity in the in vivo hippocampal neuroprotection assay (previous studies)” value [4] is listed as “maintaining activity”.

With `[N-]=[N+]=NCC(F)Cn1c2ccc(Br)cc2c2cc(Br)ccc21` (stereo not shown) [compound 9, 9-(3-azido-2-fluoropropyl)-3,6-dibromo-9H-carbazole] the “number of surviving newborn hippocampal neurons” value ([3]; ICV, 1 week, FIG. 1) was “inactive”.

With `NCC(F)Cn1c2ccc(Br)cc2c2cc(Br)ccc21` (stereo not shown) [compound 10, 3-(3,6-dibromo-9H-carbazol-9-yl)-2-fluoropropan-1-amine] the “increase in the number of BrdU+ cells compared to vehicle” value (shortened to “increase in the number of BrdU+ cells”) ([3]; ICV, 1 week, FIG. 1) was 30%.

In the case of `NCC(O)Cn1c2ccc(Br)cc2c2cc(Br)ccc21` (stereo not shown) [compound 14, 1-amino-3-(3,6-dibromo-9H-carbazol-9-yl)propan-2-ol], the “increase in the number of BrdU+ cells” value ([3]; ICV, 1 week, FIG. 1) is reported as 30%.

With `COc1cccc(NCC(O)Cn2c3ccc(Br)cc3c3cc(Br)ccc32)n1` (stereo not shown) [compound 15, 1-(3,6-dibromo-9H-carbazol-9-yl)-3-((6-methoxypyridin-2-yl)amino)propan-2-ol] the “increase in the number of BrdU+ cells” value ([3]; ICV, 1 week, FIG. 1) was 30%.

— patent US9902713B2, “Neuroprotective compounds and use thereof” (BOARD OF REGENTS OF THE UNIVERSITY OF TEXAS SYSTEM, priority 2013, dated 2018)
